Assay results: patent publication US20260256789A1, “METHODS FOR TREATMENT OF CANCER” (Frontier Medicines Corporation, priority 2022, published 2026)

target: T1, KRAS G12C (GMPPNP-loaded) and cRAF Ras-binding domain (Homo sapiens, UniProt P01116, C118S/C51S/C80L/G12C); test: Inhibition of KRAS G12C and cRAF binding (AlphaScreen); details: KRAS G12C preloaded with GTP analogue GMPPNP, 2 hours preincubation
T1 construct: truncated version comprising amino acids 1-169
Outline: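 Compounds (10-point, 1:3 from 50 μM; 2% DMSO) were incubated 2 h at room temperature with 0.5 nM GMPPNP-preloaded truncated Cys-light KRAS G12C, then 60-90 min with 0.75 nM GST-RBD of cRAF and AlphaScreen beads. Signal at 570 nm gave IC50 by 4-parameter regression, and a biotin-AviTag-GST counter assay excluded interference with the AlphaScreen readout.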

T1 sequence (P01116 1-169 isoform P01116-2 G12C/C51S/C80L/C118S): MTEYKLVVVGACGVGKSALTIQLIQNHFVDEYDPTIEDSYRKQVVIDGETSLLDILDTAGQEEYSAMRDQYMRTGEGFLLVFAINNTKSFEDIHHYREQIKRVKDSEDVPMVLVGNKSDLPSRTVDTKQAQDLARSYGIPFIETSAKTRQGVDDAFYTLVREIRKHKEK

SMILES	IC50 [µM]
C=CC(=O)N1CC[C@@H](N(C)c2nc(OC[C@@]34CCCN3C[C@H](F)C4)nc3c(F)c(-c4cc(F)cnc4C4CC4)ncc23)C1 [Example 259]	≥ 0.5
C=CC(=O)N1CC[C@@H](N(C)c2nc(OC[C@@]34CCCN3C[C@H](F)C4)nc3c(F)c(-c4cccc(Cl)c4C4CC4)ncc23)[C@H]1C (single isomer, unassigned) [Example 77]	0.1 to 0.5
C=CC(=O)N1CC[C@@H](N(C)c2nc(OC[C@@]34CCCN3C[C@H](F)C4)nc3c(F)c(-c4cccc(Cl)c4C4CC4)ncc23)[C@H]1C [Example 236]	0.1 to 0.5
CN1CC[C@@H]1/C=C/C(=O)N1CC[C@@H](N(C)c2nc(OC[C@@]34CCCN3C[C@H](F)C4)nc3c(F)c(-c4cccc(Cl)c4C4CC4)ncc23)C1 [Example 227]	< 0.01
C=CC(=O)N1CC[C@@H](N(C)c2nc(OC[C@@]34CCCN3C[C@H](F)C4)nc3c(F)c(-c4c(Cl)c(C)cc5[nH]ncc45)ncc23)C1 [Example 194]	0.01 to 0.1
C=CC(=O)N1CC[C@@H](N(C)c2nc(OC[C@@]34CCCN3C[C@H](F)C4)nc3c(F)c(-c4c(C)cc(F)c5[nH]ncc45)ncc23)C1 [Example 232]	≥ 0.5
CO[C@@H]1CCN(C/C=C/C(=O)N2CC[C@@H](N(C)c3nc(OC[C@@]45CCCN4C[C@H](F)C5)nc4c(F)c(-c5cccc(Cl)c5C5CC5)ncc34)C2)C1 [Example 222]	0.1 to 0.5
C=CC(=O)N1CC[C@@H](N(C)c2nc(OC[C@@]34CCCN3C[C@H](F)C4)nc3c(F)c(-c4cc(OC(F)F)ccc4Cl)ncc23)C1 [Example 186]	≥ 0.5
C=CC(=O)N1CC[C@@H](N(C)c2nc(OC[C@@]34CCCN3C[C@H](F)C4)nc3c(F)c(-c4cc(C(F)F)ccc4Cl)ncc23)C1 [Example 251]	≥ 0.5
CN(CC1CN(C(=O)/C=C/CN2CCOCC2)C1)c1nc(OC[C@@]23CCCN2C[C@H](F)C3)nc2c(F)c(-c3nc(N)cc4cccc(Cl)c34)ncc12 [Example 84, (E)-1-(3-(((7-(3-amino-8-chloroisoquinolin-1-yl)-8-fluoro-2-(((2R,7aS)-2-fluorotetrahydro-1H-pyrrolizin-7a(5H)-yl)methoxy)pyrido[4,3-d]pyrimidin-4-yl)(methyl)amino)methyl)azetidin-1-yl)-4-morpholinobut-2-en-1-one]	0.01 to 0.1
C=CC(=O)N1CC[C@@H](N(C)c2nc(OC[C@@]34CCCN3C[C@H](F)C4)nc3c(F)c(-c4scnc4C)ncc23)C1 [Example 183]	≥ 0.5
Cc1nccc(/C=C/C(=O)N2CC[C@@H](N(C)c3nc(OC[C@@]45CCCN4C[C@H](F)C5)nc4c(F)c(-c5cccc(Cl)c5C5CC5)ncc34)C2)n1 [Example 221]	0.1 to 0.5
CN1CC[C@@H]1/C=C/C(=O)N1CC[C@@H](N(C)c2nc(OC[C@@]34CCCN3C[C@H](F)C4)nc3c(F)c(-c4cc(O)cc(F)c4C4CC4)ncc23)C1 [Example 180]	< 0.01
C=CC(=O)N1CC[C@@H](N(C)c2nc(OC[C@@]34CCCN3C[C@H](F)C4)nc3c(F)c(-c4cc(O)cc(Cl)c4C4CC4)ncc23)C1 [Example 12, 1-((R)-3-((7-(3-chloro-2-cyclopropyl-5-hydroxyphenyl)-8-fluoro-2-(((2R,7aS)-2-fluorotetrahydro-1H-pyrrolizin-7a(5H)-yl)methoxy)pyrido[4,3-d]pyrimidin-4-yl)(methyl)amino)pyrrolidin-1-yl)prop-2-en-1-one]	< 0.01

More lines, now with the values ahead:

IC50 [µM]	SMILES
≥ 0.5	C=CC(=O)N1CC(CN(C)c2nc(OCC34CCCN3CCC4)nc3c2C[C@@H](C)[C@H](c2nc(N)cc(C)c2C(F)(F)F)C3)C1 [Example 199]
0.01 to 0.1	Cc1nsc(/C=C/C(=O)N2CC[C@@H](N(C)c3nc(OC[C@@]45CCCN4C[C@H](F)C5)nc4c3C[C@@H](C)[C@H](c3nc(N)cc(C)c3C(F)(F)F)C4)C2)n1 [Example 158, (E)-1-((R)-3-(((6R,7R)-7-(6-amino-4-methyl-3-(trifluoromethyl)pyridin-2-yl)-2-(((2R,7aS)-2-fluorotetrahydro-1H-pyrrolizin-7a(5H)-yl)methoxy)-6-methyl-5,6,7,8-tetrahydroquinazolin-4-yl)(methyl)amino)pyrrolidin-1-yl)-3-(3-methyl-1,2,4-thiadiazol-5-yl)prop-2-en-1-one]
≥ 0.5	C=CC(=O)N1CC[C@@H](N(C)c2nc(OC[C@@]34CCCN3C[C@H](F)C4)nc3c(F)c(-c4nc(N)ccc4C4CC4)ncc23)C1 [Example 166, 1-((R)-3-((7-(6-amino-3-cyclopropylpyridin-2-yl)-8-fluoro-2-(((2R,7aS)-2-fluorotetrahydro-1H-pyrrolizin-7a(5H)-yl)methoxy)pyrido[4,3-d]pyrimidin-4-yl)(methyl)amino)pyrrolidin-1-yl)prop-2-en-1-one]
0.1 to 0.5	Cc1cc(N)nc(-c2ncc3c(N(C)[C@@H]4CCN(C(=O)/C=C/CN5CCOCC5)C4)nc(OC[C@@]45CCCN4C[C@H](F)C5)nc3c2F)c1C(F)(F)F [Example 120]
< 0.01	Cc1noc(/C=C/C(=O)N2CC[C@@H](N(C)c3nc(OC[C@@]45CCCN4C[C@H](F)C5)nc4c(F)c(-c5nc(N)cc(C)c5C5CC5)ncc34)C2)n1 [Example 11, (E)-1-((R)-3-((7-(6-amino-3-cyclopropyl-4-methylpyridin-2-yl)-8-fluoro-2-(((2R,7aS)-2-fluorotetrahydro-1H-pyrrolizin-7a(5H)-yl)methoxy)pyrido[4,3-d]pyrimidin-4-yl)(methyl)amino)pyrrolidin-1-yl)-3-(3-methyl-1,2,4-oxadiazol-5-yl)prop-2-en-1-one]
< 0.01	Cc1cc(N)nc(-c2ncc3c(N(C)CC4CN(C(=O)/C=C/c5nc(C(C)C)no5)C4)nc(OC[C@@]45CCCN4C[C@H](F)C5)nc3c2F)c1C(F)(F)F [Example 51, (E)-1-(3-(((7-(6-amino-4-methyl-3-(trifluoromethyl)pyridin-2-yl)-8-fluoro-2-(((2R,7aS)-2-fluorohexahydro-1H-pyrrolizin-7a-yl)methoxy)pyrido[4,3-d]pyrimidin-4-yl)(methyl)amino)methyl)azetidin-1-yl)-3-(3-isopropyl-1,2,4-oxadiazol-5-yl)prop-2-en-1-one]
0.01 to 0.1	CC(C)c1noc(/C=C/C(=O)N2CC[C@@H](N(C)c3nc(OC[C@@]45CCCN4C[C@H](F)C5)nc4c(F)c(-c5nc(N)ccc5C5CC5)ncc34)C2)n1 [Example 8, (E)-1-((R)-3-((7-(6-amino-3-cyclopropylpyridin-2-yl)-8-fluoro-2-(((2R,7aS)-2-fluorotetrahydro-1H-pyrrolizin-7a(5H)-yl)methoxy)pyrido[4,3-d]pyrimidin-4-yl)(methyl)amino)pyrrolidin-1-yl)-3-(3-isopropyl-1,2,4-oxadiazol-5-yl)prop-2-en-1-one]
< 0.01	Cc1cc(N)nc(-c2ncc3c(N(C)[C@@H]4CCN(C(=O)/C=C/[C@@H]5CCN5C)C4)nc(OC[C@@]45CCCN4C[C@H](F)C5)nc3c2F)c1C(F)(F)F [Example 83]
0.1 to 0.5	CN1CC[C@H]1/C=C/C(=O)N1CC[C@@H](N(C)c2nc(OC[C@@]34CCCN3C[C@H](F)C4)nc3c(F)c(-c4nc(N)cc5cccc(F)c45)ncc23)C1 [Example 135]
